Results as given in ChEMBL document CHEMBL3632595, “Constituents of the seeds of Cassia tora with inhibitory activity on soluble expoxide hydrolease” (Bioorg Med Chem Lett, 2015).
pIC50, pKi: −log10 of the molar value.

Experiments:
[1] = molecular target: T1, Bifunctional epoxide hydrolase 2 (Homo sapiens) (UniProt P34913); settings: at 50 µM
T1 sequence (whole entry): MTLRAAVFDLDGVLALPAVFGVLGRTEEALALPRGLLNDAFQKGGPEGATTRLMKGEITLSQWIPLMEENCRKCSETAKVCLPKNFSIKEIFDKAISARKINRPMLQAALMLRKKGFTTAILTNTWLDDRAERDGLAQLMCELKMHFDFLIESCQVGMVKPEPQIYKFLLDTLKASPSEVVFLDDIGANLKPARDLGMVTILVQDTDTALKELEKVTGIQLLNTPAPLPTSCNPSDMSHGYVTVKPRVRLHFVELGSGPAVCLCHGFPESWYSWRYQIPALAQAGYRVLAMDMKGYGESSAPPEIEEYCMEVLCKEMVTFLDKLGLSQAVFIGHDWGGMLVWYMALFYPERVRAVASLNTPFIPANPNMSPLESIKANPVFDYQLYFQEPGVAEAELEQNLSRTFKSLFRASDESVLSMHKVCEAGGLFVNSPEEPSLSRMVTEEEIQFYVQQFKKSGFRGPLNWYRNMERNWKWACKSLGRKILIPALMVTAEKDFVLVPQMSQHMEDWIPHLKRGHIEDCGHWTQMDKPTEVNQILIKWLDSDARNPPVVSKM
Description: Inhibition of sEH (unknown origin) assessed as 6-methoxy-2-naphthaldehyde formation at 50 uM by fluorometry assay using 40 uM cyano-(6-methoxy-naphthalen-2-yl)-methyl ester as substrate

[2] = molecular target: T2, Bifunctional epoxide hydrolase 2 (Homo sapiens, UniProt P34913); assay: Inhibition of sEH (unknown origin) assessed as 6-methoxy-2-naphthaldehyde formation by fluorometry assay using 40 uM cyano-(6-methoxy-naphthalen-2-yl)-methyl ester as substrate
T2 sequence (P34913 whole entry): T1 sequence (whole entry)

[3] = molecular target: T2, Bifunctional epoxide hydrolase 2; assay: Reversible-uncompetitive inhibition of sEH (unknown origin) by Lineweaver-Burk plot

COc1cc2c(c(O)c1OC)C(=O)c1c(cc(C)c(O)c1OC)C2=O
inhibition [1]: 55.1%
pIC50 [2]: 4.58

Cc1cc(O)c2c(c1)C(=O)c1cccc(O)c1C2=O
inhibition [1]: 38.1%

COc1c(O[C@@H]2O[C@H](CO)[C@@H](O)[C@H](O)[C@H]2O)c(C)cc2c1C(=O)c1c(O)cccc1C2=O
inhibition [1]: 50.6%
pIC50 [2]: 4.61

COc1c(O)cc2c(c1O)C(=O)c1c(cc(C)c(O)c1OC)C2=O
inhibition [1]: 0%

COc1cc2c(c(OC)c1OC)C(=O)c1c(cc(C)c(O)c1OC)C2=O [CHRYSOOBTUSIN]
inhibition [1]: 59.8%
pIC50 [2]: 4.58

COc1cc(O)c2c(c1)C(=O)c1cc(C)cc(O)c1C2=O
inhibition [1]: 27.1%

COc1ccc2c(c1O)C(=O)c1c(cc(C)c(O)c1OC)C2=O
inhibition [1]: 54.2%
pIC50 [2]: 4.45

COc1c(O)c(C)cc2c1C(=O)c1c(O)cccc1C2=O
inhibition [1]: 2.6%

COc1cc(O[C@@H]2O[C@H](CO[C@@H]3O[C@H](CO)[C@@H](O)[C@H](O)[C@H]3O)[C@@H](O)[C@H](O)[C@H]2O)c2c(O)c3c(=O)oc(C)cc3cc2c1
inhibition [1]: 67.6%
pIC50 [2]: 4.70

COc1cc(O[C@@H]2O[C@H](CO)[C@@H](O)[C@H](O)[C@H]2O)c2c(O)c3c(=O)cc(C)oc3cc2c1
inhibition [1]: 38.1%

COc1cc2c(c(OC)c1OC)C(=O)c1c(cc(C)c(O[C@@H]3O[C@H](CO)[C@@H](O)[C@H](O)[C@H]3O)c1OC)C2=O
inhibition [1]: 28.6%

COc1c(O[C@@H]2O[C@H](CO)[C@@H](O)[C@H](O)[C@H]2O)cc2c(c1O)C(=O)c1c(cc(C)c(O)c1OC)C2=O
inhibition [1]: 57.7%
pIC50 [2]: 4.48

COc1cc(O[C@@H]2O[C@H](CO[C@@H]3O[C@H](CO)[C@@H](O)[C@H](O)[C@H]3O)[C@@H](O)[C@H](O)[C@H]2O)c2c(O)c3c(=O)cc(C)oc3cc2c1
inhibition [1]: 50.9%
pIC50 [2]: 4.43

Cc1cc(O)c2c(c1)C(=O)c1cc(O)cc(O)c1C2=O [EMODIN]
inhibition [1]: 56.4%
pIC50 [2]: 4.44

COc1cc(O[C@@H]2O[C@H](CO)[C@@H](O)[C@H](O)[C@H]2O)c2c(OC)c(C(C)=O)c(O[C@H]3OC[C@@](O)(CO)[C@@H]3O)cc2c1
inhibition [1]: 91.6%
pKi [3]: 6.22
pIC50 [2]: 5.66

COc1cc(O[C@@H]2O[C@H](CO[C@@H]3O[C@H](CO)[C@@H](O)[C@H](O)[C@H]3O)[C@@H](O)[C@H](O)[C@H]2O)c2c(c1)C(=O)c1cc(C)cc(O)c1C2=O
inhibition [1]: 51%
pIC50 [2]: 4.39
